Measured values from the NIST ThermoML archive (doi:10.1021/acs.jced.6b00210).

Experiment: xn = mol fraction of the nth substance listed
Details: 100 kPa, Liquid; for viscosity: Concentric cylinders viscometry; for mass density: Vibrating tube method

Nc1ccccc1 [aniline] + CCC(C)O
Details | mass density [kg/m3] | viscosity [mPa·s]
293.15 K, x1 = 0.0813 | 825 | 3.32
293.15 K, x1 = 0.16 | 842.5 | 3.07
293.15 K, x1 = 0.24 | 860.1 | 2.88
293.15 K, x1 = 0.3502 | 884.2 | 2.71
293.15 K, x1 = 0.44 | 903.7 | 2.66
293.15 K, x1 = 0.5601 | 929.6 | 2.72
293.15 K, x1 = 0.65 | 948.8 | 2.81
293.15 K, x1 = 0.74 | 967.8 | 3
293.15 K, x1 = 0.8499 | 990.8 | 3.4
293.15 K, x1 = 0.94 | 1009.4 | 3.89
293.15 K, x1 = 1 | 1021.7 | 4.37
298.15 K, x1 = 0.0813 | 820.7 | 2.77
298.15 K, x1 = 0.16 | 838.1 | 2.55
298.15 K, x1 = 0.24 | 855.7 | 2.39
298.15 K, x1 = 0.3502 | 879.7 | 2.25
298.15 K, x1 = 0.44 | 899.2 | 2.21
298.15 K, x1 = 0.5601 | 924.9 | 2.24
298.15 K, x1 = 0.65 | 944.1 | 2.33
298.15 K, x1 = 0.74 | 963.1 | 2.52
298.15 K, x1 = 0.8499 | 986.2 | 2.92
298.15 K, x1 = 0.94 | 1004.9 | 3.38
298.15 K, x1 = 1 | 1017.4 | 3.8
303.15 K, x1 = 0.0813 | 816.3 | 2.3
303.15 K, x1 = 0.16 | 833.6 | 2.12
303.15 K, x1 = 0.24 | 851.1 | 1.97
303.15 K, x1 = 0.3502 | 875.1 | 1.83
303.15 K, x1 = 0.44 | 894.5 | 1.78
303.15 K, x1 = 0.5601 | 920.4 | 1.77
303.15 K, x1 = 0.65 | 939.6 | 1.83
303.15 K, x1 = 0.74 | 958.6 | 1.97
303.15 K, x1 = 0.8499 | 981.8 | 2.32
303.15 K, x1 = 0.94 | 1000.6 | 2.77
303.15 K, x1 = 1 | 1013.2 | 3.13
308.15 K, x1 = 0.0813 | 811.9 | 1.94
308.15 K, x1 = 0.16 | 829.1 | 1.81
308.15 K, x1 = 0.24 | 846.6 | 1.69
308.15 K, x1 = 0.3502 | 870.5 | 1.56
308.15 K, x1 = 0.44 | 890 | 1.51
308.15 K, x1 = 0.5601 | 915.8 | 1.5
308.15 K, x1 = 0.65 | 935 | 1.55
308.15 K, x1 = 0.74 | 954.2 | 1.69
308.15 K, x1 = 0.8499 | 977.4 | 2.01
308.15 K, x1 = 0.94 | 996.4 | 2.43
308.15 K, x1 = 1 | 1009 | 2.75
313.15 K, x1 = 0.0813 | 807.5 | 1.65
313.15 K, x1 = 0.16 | 824.7 | 1.52
313.15 K, x1 = 0.24 | 842.1 | 1.416
313.15 K, x1 = 0.3502 | 865.9 | 1.33
313.15 K, x1 = 0.44 | 885.3 | 1.29
313.15 K, x1 = 0.5601 | 911.2 | 1.3
313.15 K, x1 = 0.65 | 930.5 | 1.35
313.15 K, x1 = 0.74 | 949.6 | 1.49
313.15 K, x1 = 0.8499 | 973 | 1.78
313.15 K, x1 = 0.94 | 992 | 2.14
313.15 K, x1 = 1 | 1004.7 | 2.43
318.15 K, x1 = 0.0813 | 802.9 | 1.42
318.15 K, x1 = 0.16 | 820 | 1.31
318.15 K, x1 = 0.24 | 837.3 | 1.21
318.15 K, x1 = 0.3502 | 861.1 | 1.13
318.15 K, x1 = 0.44 | 880.5 | 1.11
318.15 K, x1 = 0.5601 | 906.4 | 1.13
318.15 K, x1 = 0.65 | 925.7 | 1.19
318.15 K, x1 = 0.74 | 945 | 1.31
318.15 K, x1 = 0.8499 | 968.5 | 1.58
318.15 K, x1 = 0.94 | 987.6 | 1.9
318.15 K, x1 = 1 | 1000.4 | 2.14
323.15 K, x1 = 0.0813 | 798.2 | 1.24
323.15 K, x1 = 0.16 | 815.2 | 1.15
323.15 K, x1 = 0.24 | 832.5 | 1.07
323.15 K, x1 = 0.3502 | 856.2 | 1
323.15 K, x1 = 0.44 | 875.5 | 0.99
323.15 K, x1 = 0.5601 | 901.3 | 1.014
323.15 K, x1 = 0.65 | 920.7 | 1.075
323.15 K, x1 = 0.74 | 940 | 1.189
323.15 K, x1 = 0.8499 | 963.5 | 1.46
323.15 K, x1 = 0.94 | 982.7 | 1.75
323.15 K, x1 = 1 | 995.5 | 1.96
